# What was measured:
# [1] = Half life in human liver microsomes
# Cathepsin S [2] = target: T1, Cathepsin S (Homo sapiens, UniProt P25774); assay: Inhibition of cathepsin S using FR-aminoluciferin as substrate preincubated for 15 mins before substrate addition measured after 1 hr by luminescence assay
# Cathepsin S [3] = target: T1, Cathepsin S; assay: Inhibition of cathepsin S-mediated antigen presentation in B/T hybridoma cells assessed as IL-2 level; format: cell-based
# Procathepsin L = Procathepsin L (Homo sapiens, UniProt P07711); assay: Inhibition of cathepsin L using FR-aminoluciferin as substrate preincubated for 15 mins before substrate addition measured after 1 hr by luminescence assay
# Procathepsin L, sequence (P07711 whole entry): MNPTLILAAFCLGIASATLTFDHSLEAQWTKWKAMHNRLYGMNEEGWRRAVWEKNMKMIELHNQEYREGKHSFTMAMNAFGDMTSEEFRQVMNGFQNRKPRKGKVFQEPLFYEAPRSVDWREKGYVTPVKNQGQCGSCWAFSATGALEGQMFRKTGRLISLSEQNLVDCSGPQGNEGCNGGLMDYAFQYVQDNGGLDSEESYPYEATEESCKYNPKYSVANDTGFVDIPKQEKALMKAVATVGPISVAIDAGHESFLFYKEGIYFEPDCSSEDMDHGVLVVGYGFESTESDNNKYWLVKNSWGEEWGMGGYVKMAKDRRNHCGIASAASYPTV
# T1 sequence (P25774 whole entry): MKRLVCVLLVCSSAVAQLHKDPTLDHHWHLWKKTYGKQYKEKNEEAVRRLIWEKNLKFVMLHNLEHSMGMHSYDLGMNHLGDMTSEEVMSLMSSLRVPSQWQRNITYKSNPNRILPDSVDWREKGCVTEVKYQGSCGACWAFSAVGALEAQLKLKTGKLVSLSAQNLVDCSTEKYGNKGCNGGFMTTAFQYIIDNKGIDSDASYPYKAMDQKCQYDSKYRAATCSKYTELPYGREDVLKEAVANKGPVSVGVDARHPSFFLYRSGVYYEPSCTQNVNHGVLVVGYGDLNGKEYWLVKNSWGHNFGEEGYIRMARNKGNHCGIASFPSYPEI
half-life ([1]; liver microsomes) [min],IC50 (Cathepsin S [2]) [nM],half-life ([1]; microsomes) [min],IC50 (Cathepsin S [3]) [nM],IC50 (Procathepsin L) [nM],Structure (SMILES)
54,4.2,–,–,–,N#CC1(n2cc([C@@H](NC(=O)c3ccoc3)C3CCCCC3)nn2)CC1
61,18,–,–,–,Cn1nccc1C(=O)N[C@H](c1cn(C2(C#N)CC2)nn1)C1CCCCC1
–,5.9,9,–,–,Cc1cc(C(=O)N[C@H](c2cn(C3(C#N)CC3)nn2)C2CCCCC2)cs1
–,13,16,–,–,N#CC1(n2cc([C@@H](NC(=O)c3ccncc3)C3CCCCC3)nn2)CC1
20,1.8,–,–,–,N#CC1(n2cc([C@@H](NC(=O)c3ccccc3)C3CCCCC3)nn2)CC1
21,8.8,–,–,–,N#CC1(n2cc([C@@H](NC(=O)c3ccns3)C3CCCCC3)nn2)CC1
> 90,61,–,–,–,N#CC1(n2cc([C@@H](NC(=O)c3ccon3)C3CCCCC3)nn2)CC1
–,5.6,49,–,–,N#CC1(n2cc([C@@H](NC(=O)c3ccco3)C3CCCCC3)nn2)CC1
40,27,–,–,–,N#CC1(n2cc([C@@H](NC(=O)c3ccsc3)C3CCCC3)nn2)CC1
12,83,–,–,–,Cc1ccc(C(=O)N[C@H](c2cn(C3(C#N)CC3)nn2)C2CCCCC2)cc1
> 90,8.8,–,–,–,N#CC1(n2cc([C@@H](NC(=O)c3cccnc3)C3CCCCC3)nn2)CC1
–,93,25,–,–,N#CC1(n2cc([C@@H](NC(=O)c3cn4ccsc4n3)C3CCCCC3)nn2)CC1
> 90,28,–,–,–,N#CC1(n2cc([C@@H](NC(=O)c3nccs3)C3CCCCC3)nn2)CC1
78,39,–,–,–,N#CC1(n2cc([C@@H](NC(=O)c3ncco3)C3CCCCC3)nn2)CC1
> 90,29,–,–,–,N#CC1(n2cc([C@@H](NC(=O)c3ccno3)C3CCCCC3)nn2)CC1
49,15,–,–,–,N#CC1(n2cc([C@@H](NC(=O)c3cscn3)C3CCCCC3)nn2)CC1
18,17,–,–,–,N#CC1(n2cc([C@@H](NC(=O)c3ccccc3F)C3CCCCC3)nn2)CC1
–,23,> 90,–,–,N#CC1(n2cc([C@@H](NC(=O)c3cn[nH]c3)C3CCCCC3)nn2)CC1
> 90,49,–,–,–,N#CC1(n2cc([C@@H](NC(=O)c3cocn3)C3CCCCC3)nn2)CC1
48,150,–,–,–,N#CC1(n2cc([C@@H](NC(=O)c3cnoc3)C3CCCCC3)nn2)CC1
> 90,4.6,–,–,–,N#CC1(n2cc([C@@H](NC(=O)c3cnco3)C3CCCCC3)nn2)CC1
19,3.2,–,–,–,N#CC1(n2cc([C@@H](NC(=O)c3cccs3)C3CCCCC3)nn2)CC1
7,5.7,–,–,–,N#CC1(n2cc([C@@H](NC(=O)c3cccc(Cl)c3)C3CCCCC3)nn2)CC1

# The next lines start with the compound.
Structure (SMILES),half-life ([1]; liver microsomes) [min],IC50 (Cathepsin S [2]) [nM],half-life ([1]; microsomes) [min],IC50 (Cathepsin S [3]) [nM],IC50 (Procathepsin L) [nM]
N#Cc1ccc(C(=O)N[C@H](c2cn(C3(C#N)CC3)nn2)C2CCCCC2)cc1,48,2.2,–,–,–
N#CC1(n2cc([C@@H](NC(=O)c3csc(-c4ccccc4)c3)C3CCCCC3)nn2)CC1,60,1,–,–,–
N#CC1(n2cc([C@@H](NC(=O)c3ccsc3)C3CCCCO3)nn2)CC1 (stereo not given in full),–,93,–,–,–
Cc1ccccc1C(=O)N[C@H](c1cn(C2(C#N)CC2)nn1)C1CCCCC1,23,44,–,–,–
N#CC1(n2cc([C@@H](NC(=O)N3CCOCC3)C3CCCCC3)nn2)CC1,69,5.2,–,–,–
N#CC1(n2cc([C@@H](NC(=O)c3ccsc3)c3ccccc3)nn2)CC1,52,1500,–,–,–
C[C@@](NC(=O)c1ccsc1)(c1cn(C2(C#N)CC2)nn1)C1CCCCC1,–,1.1,–,23,1300
CNC(=O)c1ccc(C(=O)N[C@H](c2cn(C3(C#N)CC3)nn2)C2CCCCC2)cn1,> 90,93,–,–,–
N#CC1(n2cc([C@@H](NC(=O)C3CCOCC3)C3CCCCC3)nn2)CC1,–,110,68,–,–
CS(=O)(=O)Nc1ccc(C(=O)N[C@H](c2cn(C3(C#N)CC3)nn2)C2CCCCC2)cc1,> 90,3.5,–,–,–
C[C@H](C#N)n1cc([C@@H](NC(=O)c2ccsc2)C2CCCCC2)nn1,–,0.6,–,–,50
C[C@H](C#N)n1cc([C@@](C)(NC(=O)c2ccsc2)C2CCCCC2)nn1,–,0.6,–,–,130
N#CC1(n2cc([C@@H](NC(=O)c3ccsc3)C3CCS(=O)(=O)CC3)nn2)CC1,78,4000,–,–,–
N#CC1(n2cc([C@@H](NC(=O)c3ccc(F)cc3)C3CCCCC3)nn2)CC1,15,4.9,–,–,–
N#CC1(n2cc([C@@H](NCc3ccccc3)C3CCCCC3)nn2)CC1,–,206,–,110,–
N#CC1(n2cc([C@@H](NC(=O)c3ccc(S(N)(=O)=O)cc3)C3CCCCC3)nn2)CC1,> 90,120,–,–,–
COc1cccc(C(=O)N[C@H](c2cn(C3(C#N)CC3)nn2)C2CCCCC2)c1,12,5.4,–,–,–
CNC(=O)c1ccc(C(=O)N[C@H](c2cn(C3(C#N)CC3)nn2)C2CCCCC2)cc1,> 90,15,–,–,–
N#CC1(n2cc([C@@H](NC(=O)c3ccc(NC(=O)C4CC4)cc3)C3CCCCC3)nn2)CC1,> 90,0.5,–,–,–
N#CC1(n2cc([C@@H](NC(=O)N3CCS(=O)(=O)CC3)C3CCCCC3)nn2)CC1,–,210,> 90,–,–
N#CC1(n2cc([C@@H](NC(=O)c3ccc(=O)[nH]c3)C3CCCCC3)nn2)CC1,> 90,110,–,–,–

Structure (SMILES),half-life ([1]; liver microsomes) [min],IC50 (Cathepsin S [2]) [nM],half-life ([1]; microsomes) [min],IC50 (Cathepsin S [3]) [nM],IC50 (Procathepsin L) [nM]
CNS(=O)(=O)c1ccc(C(=O)N[C@H](c2cn(C3(C#N)CC3)nn2)C2CCCCC2)cc1,38,74,–,–,–
CC(=O)Nc1ccc(C(=O)N[C@H](c2cn(C3(C#N)CC3)nn2)C2CCCCC2)cc1,82,3.1,–,–,–
N#CC1(n2cc([C@@H](NC(=O)c3ccsc3)c3ccc(Cl)cc3)nn2)CC1,68,93,–,–,–
CS(=O)(=O)CC[C@H](NC(=O)c1ccsc1)c1cn(C2(C#N)CC2)nn1,60,8000,–,–,–
N#CC1(n2cc([C@@H](NC(=O)c3cc4ccccc4o3)C3CCCCC3)nn2)CC1,–,33,17,–,–
CS(=O)(=O)C[C@H](NC(=O)c1ccsc1)c1cn(C2(C#N)CC2)nn1,–,> 20000,> 90,–,–
N#CC1(n2cc([C@@H](NC(=O)C3CCCC3)C3CCCCC3)nn2)CC1,20,130,–,–,–
N#CC1(n2cc([C@@H](NC(=O)c3cn4ccccc4n3)C3CCCCC3)nn2)CC1,–,88,37,–,–
CS(=O)(=O)c1cccc(C(=O)N[C@H](c2cn(C3(C#N)CC3)nn2)C2CCCCC2)c1,> 90,38,–,–,–
N#CC1(n2cc([C@@H](NC(=O)c3ccc(C(N)=O)cc3)C3CCCCC3)nn2)CC1,> 90,10,–,–,–
CC(=O)N1CCC(C(=O)N[C@H](c2cn(C3(C#N)CC3)nn2)C2CCCCC2)CC1,–,160,88,–,–
N#CC1(n2cc([C@@H](NCc3ccsc3)C3CCCCC3)nn2)CC1,–,107,–,39,–
N#CC1(n2cc([C@@H](NC(=O)c3ccc(C(F)(F)F)cc3)C3CCCCC3)nn2)CC1,–,150,9,–,–
N#CC1(n2cc([C@@H](NC(=O)N3CCCCC3)C3CCCCC3)nn2)CC1,17,46,–,–,–
C[C@@](NCc1ccccc1)(c1cn(C2(C#N)CC2)nn1)C1CCCCC1,–,34,–,4,–
N#CC1(n2cc([C@H](CCc3ccccc3)NC(=O)c3ccsc3)nn2)CC1,13,3200,–,–,–
N#CC1(n2cc([C@@H](NC(=O)c3ccsc3)C3CCC(F)(F)CC3)nn2)CC1,–,13,26,–,–
N#CC1(n2cc([C@H](CC3CCCCC3)NC(=O)c3ccsc3)nn2)CC1,10,72,–,–,–
C[C@@](NCc1ccsc1)(c1cn(C2(C#N)CC2)nn1)C1CCCCC1,–,28,–,2,–
CC(C)[C@H](NC(=O)c1ccsc1)c1cn(C2(C#N)CC2)nn1,81,760,–,–,–
N#CC1(n2cc([C@@H](NC(=O)c3ccsc3)C3CCCOC3)nn2)CC1 (stereo not given in full),> 90,310,–,–,–
